Assay results: PMC12302229, “Synergy of triazolyl substituents at C1 and C3 of galactose for high-affinity and selective galectin-4C inhibition” (RSC Chemical Biology, 2025)
Values joined by “and” are separate entries in the source; they are usually repeats but may differ in a detail not shown here. Equal entries are not always repeated. Where two headings read alike, the source gives them in different places.

Tests used:
[1] = biological target: T1, galectin-4C (Homo sapiens, UniProt P56470); experiment: competitive fluorescence polarization assay, galectin-4C; assay type: binding; conditions: for Kd: fluorescence polarization, x/y cells = only two data points revealed inhibition, both shown, > values estimated, no apparent binding at highest concentration, read-out: Dissociation constants, Galectin-4C
T1 construct: made in house; host or cells: E. coli BL-21 (DE3)
T1 sequence (P56470 185-323): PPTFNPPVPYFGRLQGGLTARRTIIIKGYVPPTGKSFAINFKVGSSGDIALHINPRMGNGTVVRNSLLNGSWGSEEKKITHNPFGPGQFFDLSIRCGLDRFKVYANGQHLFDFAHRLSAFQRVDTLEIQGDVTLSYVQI
Protocol: Affinities of 1c–1z for galectin-1, -3, -4C, -4N, -7, -8C, -8N, -9C, and -9N were measured using an established fluorescence polarization assay[57] with reported probes and conditions.[19]
Recombinant human galectin-4 C-terminal carbohydrate recognition domain was expressed and purified as previously reported.[57,70] Briefly, BL-21 (DE3) E. coli cells containing galectin-4C (amino acid sequence 185–323) was expressed, lysed by sonication and purified by affinity chromatography on a lactosyl-Sepharose column. Galectin-4C protein was eluted using 50 mM β-lactose in PBS, pH 7.4. Galectin-4C was then further gel purified using a Superdex 200/60 column (GE Healthcare) previously equilibrated in PBS, pH 7.4. The peak fractions collected containing galectin-4C were pooled and concentrated to 6.5 mg mL^−1 using an AmiconUltra 3K molecular weight cut-off centrifugal concentrator (Millipore, Billerica, MA, USA) and used directly in crystallisation studies. […]
(§1) triazol-1-yl]-3’-(3,5-di-methoxybenzamido)-1,1’-sulfanediyl-di-β-D-galactopyranoside) concentration of 20 nM, respectively. Inhibitors were dissolved in dimethylsulfoxide (analytical grade) to a concentration of 20 mM, diluted with PBS to 3–6 different concentrations, and tested in duplicate twice for galectin affinity using a competitive fluorescence polarization assay as earlier described.3 The highest inhibitor concentrations tested were 1 mM due to solubility limitations at higher concentration. Dissociation constants average and SEM were calculated from two to eight single point measurements showing between 20–80% inhibition. […]

[2] = biological target: T2, galectin-1 (Homo sapiens, UniProt P09382); experiment: competitive fluorescence polarization assay, galectin-1; assay type: binding; conditions: for Kd: fluorescence polarization, Kd and SEM from 3–6 single point measurements, read-out: Dissociation constants, Galectin-1
T2 construct: made in house
T2 sequence (P09382 whole entry): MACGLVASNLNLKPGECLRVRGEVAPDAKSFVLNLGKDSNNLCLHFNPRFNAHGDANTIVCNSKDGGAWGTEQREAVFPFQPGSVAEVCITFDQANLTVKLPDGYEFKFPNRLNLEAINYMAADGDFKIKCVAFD
Protocol: (§2) Affinities of 1c–1z for galectin-1, -3, -4C, -4N, -7, -8C, -8N, -9C, and -9N were measured using an established fluorescence polarization assay[57] with reported probes and conditions.[19] […]
(§3) Fluorescence polarization experiments
(§4) Human galectin-11 and galectin-32 were expressed and purified as earlier described. Fluorescence polarization experiments were performed on a PheraStarFS plate reader with software PHERAstar Mars version 2.10 R3 (BMG, Offenburg, Germany). Specific experimental conditions were a galectin-1 concentration of 0.5 µM together with the fluorescent probe (3,3’-dideoxy-3-[4-(fluorescein-5-yl-carbonylaminomethyl)-1H-1,2,3-triazol-1-yl]-3’-(3,5-di-methoxybenzamido)-1,1’-sulfanediyl-di-β-D-galactopyranoside 1 concentration of 20 nM and a galectin-3 concentration of 0.2 µM together with the fluorescent probe (3,3’-dideoxy-3-[4-(fluorescein-5-yl-carbonylaminomethyl)-1H-1,2,3- […]
as §1

[3] = biological target: T3, galectin-3 (Homo sapiens, UniProt P17931); experiment: competitive fluorescence polarization assay, galectin-3; conditions: Kd and SEM from 3–6 single point measurements, > values estimated, no apparent binding at highest concentration, read-out: Dissociation constants, Galectin-3
T3 construct: made in house
T3 sequence (P17931 whole entry): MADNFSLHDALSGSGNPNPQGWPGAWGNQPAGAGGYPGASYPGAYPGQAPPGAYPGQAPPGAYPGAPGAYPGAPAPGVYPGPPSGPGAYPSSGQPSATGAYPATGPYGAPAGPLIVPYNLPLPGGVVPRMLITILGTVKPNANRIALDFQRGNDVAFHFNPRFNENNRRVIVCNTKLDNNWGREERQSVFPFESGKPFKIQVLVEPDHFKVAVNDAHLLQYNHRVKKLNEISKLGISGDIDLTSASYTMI
Protocol: as §2, §3, §4, §1

[4] = biological target: T3, galectin-3; conditions: cited from earlier work
[5] = biological target: T1, galectin-4C; conditions: cited from earlier work
[6] = biological target: T2, galectin-1; conditions: cited from earlier work
[7] = biological target: T4, galectin-4N (Homo sapiens, UniProt P56470); experiment: competitive fluorescence polarization assay, galectin-4N; assay type: binding; conditions: Kd and SEM from 3–6 single point measurements, read-out: Dissociation constants, Galectin-4N
T4 construct: called “N” for the N-terminal CRD and “C” for the C-terminal
T4 sequence (P56470 19-150 limits assumed): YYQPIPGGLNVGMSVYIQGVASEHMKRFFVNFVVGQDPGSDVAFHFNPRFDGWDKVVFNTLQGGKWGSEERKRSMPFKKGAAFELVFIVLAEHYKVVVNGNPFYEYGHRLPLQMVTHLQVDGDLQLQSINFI
Protocol: as §2, §1

[8] = Table 1 reference compounds, read-out: Dissociation constants, Galectin-3
[9] = Chart 1, known C1-galactosyl inhibitors, read-out: affinity, Galectin-4C
[10] = Table 1 reference compounds, read-out: Dissociation constants, Galectin-1
[11] = Chart 1, known C1-galactosyl inhibitors, read-out: affinity, Galectin-1
[12] = Chart 1, known C1-galactosyl inhibitors, read-out: affinity, Galectin-3

SMILES | Kd [1] | Kd [2] | Kd [3] | other results
OC[C@H]1O[C@@H](c2cn(-c3ccc(-c4ccccc4)cc3)nn2)[C@H](O)[C@@H](O)[C@H]1O [Compound 1t] | 880 ± 82 µM | 970 ± 25 µM | 2000 ± 270 µM | –
OC[C@H]1O[C@@H](c2cn(-c3ccc(Cl)cc3)nn2)[C@H](O)[C@@H](O)[C@H]1O [Compound 1b] | – | – | – | Kd [4, 8]: 1700 µM; Kd [5, 9]: 760 µM; Kd [6, 10]: 340 µM
OC[C@H]1O[C@@H](c2cn(-c3c(F)cccc3F)nn2)[C@H](O)[C@@H](O)[C@H]1O [Compound 1k] | > 2000 µM | 1300 ± 190 µM | 1200 ± 90 µM | –
O=[N+]([O-])c1ccc(-n2cc([C@@H]3O[C@H](CO)[C@H](O)[C@H](O)[C@H]3O)nn2)cc1 [Compound 1i] | 910 ± 46 µM | 400 ± 5 µM | 1500 ± 67 µM | –
OC[C@H]1O[C@@H](c2cn(-c3ccc(C(F)(F)F)cc3)nn2)[C@H](O)[C@@H](O)[C@H]1O [Compound 1g] | 2300 µM and 2600 µM | 1300 ± 320 µM | 1200 ± 31 µM | –
OC[C@H]1O[C@@H](c2cn(-c3ccc(Br)cc3F)nn2)[C@H](O)[C@@H](O)[C@H]1O [Compound 1o] | > 2000 µM | 310 ± 29 µM | 770 ± 89 µM | –
OC[C@H]1O[C@@H](c2cn(-c3ccc(I)cc3)nn2)[C@H](O)[C@@H](O)[C@H]1O [Compound 1e] | – | 460 ± 50 µM | > 1000 µM | –
OC[C@H]1O[C@@H](c2cn(-c3ccccc3F)nn2)[C@H](O)[C@@H](O)[C@H]1O [Compound 1a] | – | – | – | Kd [4, 8]: 880 µM; Kd [5, 9]: 780 µM; Kd [6, 10]: 170 µM
OC[C@H]1O[C@@H](Cn2cc(-c3ccccc3)nn2)[C@H](O)[C@@H](n2cc(-c3ccccc3)nn2)[C@H]1O [Compound 24c, 1-((4-(1-Phenyl-1H-1,2,3-triazol-4-yl)-1,3-dideoxy-β-D-galactopyranosyl)methyl)-4-phenyl-1H-1,2,3-triazole] | 19 ± 2.9 µM | 140 ± 5 µM | 90 ± 13 µM | Kd [7]: 290 ± 32 µM
OC[C@H]1O[C@@H](c2cnc(-c3cccc4ccccc34)o2)[C@H](O)[C@@H](O)[C@H]1O [Compound 2] | – | – | – | Kd ([4]; as printed in the running text, read-out: galectin-3 affinity): 90 µM; Kd [5, 9]: 550 µM; Kd [6, 11]: 490 µM
OC[C@H]1O[C@@H](c2cn(-c3cccc(Br)c3)nn2)[C@H](O)[C@@H](O)[C@H]1O [Compound 1d, 4-(1-Deoxy-β-D-galactopyranosyl)-1-(3-bromophenyl)-1H-1,2,3-triazole] | > 2000 µM | 1400 ± 95 µM | 1600 ± 30 µM | –
OC[C@H]1O[C@@H](c2cnc(-c3cccc4ccccc34)o2)[C@H](O)[C@@H](n2cc(-c3ccccc3)nn2)[C@H]1O [Compound 18] | 2.3 ± 0.4 µM | – | – | selectivity for galectin-4C over galectin-3 ([1]; ratio of Kd): 4 fold
OC[C@H]1O[C@@H](c2cn(-c3ccc4c(c3)CCC4)nn2)[C@H](O)[C@@H](O)[C@H]1O [Compound 1u] | 2100 ± 490 µM | 2100 ± 73 µM | 1400 ± 160 µM | –
OC[C@H]1O[C@@H](c2cn(-c3cccc(Cl)c3F)nn2)[C@H](O)[C@@H](O)[C@H]1O [Compound 1n] | > 2000 µM | 1100 ± 48 µM | > 1000 µM | –
OC[C@H]1O[C@@H](c2cn(-c3ccc(Cl)cn3)nn2)[C@H](O)[C@@H](O)[C@H]1O [Compound 1r] | > 2000 µM | 650 ± 3 µM | 490 ± 6 µM | –
OC[C@H]1O[C@@H](c2cn(-c3cc(Cl)ccc3F)nn2)[C@H](O)[C@@H](O)[C@H]1O [Compound 1m] | 1300 ± 260 µM | 580 ± 12 µM | 870 ± 140 µM | –

SMILES | Kd [1] | Kd [2] | Kd [3] | other results
CS(=O)(=O)c1ccc(-n2cc([C@@H]3O[C@H](CO)[C@H](O)[C@H](O)[C@H]3O)nn2)cc1 [Compound 1v] | 2900 µM and 3500 µM | 780 ± 43 µM | 690 ± 70 µM | –
OC[C@H]1O[C@@H](Cn2cc(-c3ccc(F)cc3)nn2)[C@H](O)[C@@H](O)[C@H]1O [Compound 3] | – | – | – | Kd [4, 12]: 710 µM; Kd [5, 9]: 1200 µM; Kd [6, 11]: 170 µM
OC[C@H]1O[C@@H](c2cn(-c3ccccn3)nn2)[C@H](O)[C@@H](O)[C@H]1O [Compound 1z] | 2600 µM and 3100 µM | 150 ± 17 µM | 880 ± 100 µM | –
OC[C@H]1O[C@@H](Cn2cc(-c3ccc(C(F)(F)F)cc3)nn2)[C@H](O)[C@@H](O)[C@H]1O [Compound 4] | – | – | – | Kd [4, 12]: 830 µM; Kd [5, 9]: > 900 µM; Kd [6, 11]: 240 µM
CS(=O)(=O)c1cccc(-n2cc([C@@H]3O[C@H](CO)[C@H](O)[C@H](O)[C@H]3O)nn2)c1 [Compound 1w] | > 2000 µM | 1400 ± 85 µM | 1400 ± 70 µM | –
CC(=O)c1cccc(-n2cc([C@@H]3O[C@H](CO)[C@H](O)[C@H](O)[C@H]3O)nn2)c1 [Compound 1y] | 2000 µM and 2700 µM | 1300 ± 260 µM | 1000 ± 200 µM | –
OC[C@H]1O[C@@H](c2cn(-c3cccc(C(F)(F)F)c3)nn2)[C@H](O)[C@@H](O)[C@H]1O [Compound 1h] | 1500 µM and 2200 µM | 1500 ± 62 µM | 1300 ± 69 µM | –
OC[C@H]1O[C@@H](c2cn(-c3ccc(Br)cc3)nn2)[C@H](O)[C@@H](O)[C@H]1O [Compound 1c, 4-(1-Deoxy-β-D-galactopyranosyl)-1-(4-bromophenyl)-1H-1,2,3-triazole] | 1400 µM and 1500 µM | 140 ± 25 µM | 1400 ± 340 µM | selectivity for galectin-1 over galectin-3 ([2]; ratio of Kd): tenfold
OC[C@H]1O[C@@H](c2cn(-c3nccs3)nn2)[C@H](O)[C@@H](O)[C@H]1O [Compound 1s] | > 2000 µM | 980 ± 7 µM | 910 ± 92 µM | –
OC[C@H]1O[C@@H](c2cn(-c3ccc(Cl)c(Cl)c3)nn2)[C@H](O)[C@@H](O)[C@H]1O [Compound 1p] | 2300 µM and 2500 µM | 1300 ± 200 µM | 660 ± 53 µM | –
CC(=O)c1ccc(-n2cc([C@@H]3O[C@H](CO)[C@H](O)[C@H](O)[C@H]3O)nn2)cc1 [Compound 1x] | 1900 ± 550 µM | 970 ± 65 µM | 1200 ± 83 µM | –
O=[N+]([O-])c1cccc(-n2cc([C@@H]3O[C@H](CO)[C@H](O)[C@H](O)[C@H]3O)nn2)c1 [Compound 1j] | > 2000 µM | 1800 ± 64 µM | 1000 ± 23 µM | –
CO[C@@H]1O[C@H](CO)[C@@H](O[C@@H]2O[C@H](CO)[C@H](O)[C@H](O)[C@H]2O)[C@H](O)[C@H]1O [β-Me Lac, methyl β-lactoside] | – | – | – | Kd ([4]; Table 1 reference saccharides, read-out: Dissociation constants, Galectin-3): 220 µM; Kd ([5]; Table 1 reference saccharides, read-out: Dissociation constants, Galectin-4C): 2900 µM; Kd ([6]; Table 1 reference saccharides, read-out: Dissociation constants, Galectin-1): 190 µM
Cc1ccc(-n2cc([C@@H]3O[C@H](CO)[C@H](O)[C@H](O)[C@H]3O)nn2)cc1Cl [Compound 1q] | > 2000 µM | 1200 ± 240 µM | 1400 ± 38 µM | –
OC[C@H]1O[C@@H](c2cn(-c3cccc(I)c3)nn2)[C@H](O)[C@@H](O)[C@H]1O [Compound 1f] | – | 1300 ± 220 µM | > 1000 µM | –
OC[C@H]1O[C@@H](c2cn(-c3ccc(Cl)cc3F)nn2)[C@H](O)[C@@H](O)[C@H]1O [Compound 1l] | > 2000 µM | 300 ± 20 µM | 1200 ± 110 µM | –
